Results taken from patent publication US10597388B2, “Pyridazinone herbicides” (FMC CORPORATION, priority 2014, dated 2020).

Legend:
Experiment in all cases: Test E greenhouse herbicide test, pre- and postemergence
Assay type in all cases: in vivo
[1] = tested on: johnsongrass (Sorghum halepense); conditions: Preemergence
Procedure, shortened: (§1)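 Compounds in a non-phytotoxic solvent mixture with surfactant were applied preemergence to seeds in silt loam soil and postemergence to 2-18 cm plants (1- to 4-leaf stage) in peat-based medium. After 14 to 21 d in a greenhouse, injury was rated visually against untreated controls on a 0 (no effect) to 100 (complete control) scale.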

[2] = tested on: waterhemp (common waterhemp, Amaranthus rudis)
Procedure, shortened: as §1

[3] = tested on: nightshade (eastern black nightshade, Solanum ptycanthum); conditions: Preemergence
Procedure, shortened: as §1

[4] = tested on: foxtail, giant (giant foxtail, Setaria faberii); conditions: Preemergence
Procedure, shortened: as §1

[5] = tested on: kochia (Kochia scoparia)
Procedure, shortened: as §1

[6] = tested on: pigweed, palmer (palmer pigweed, Amaranthus palmeri)
Procedure, shortened: as §1

[7] = tested on: lambsquarters (Chenopodium album); conditions: Preemergence
Procedure, shortened: as §1

[8] = tested on: surinam grass (Brachiaria decumbens); conditions: Preemergence
Procedure, shortened: as §1

[9] = tested on: field bindweed (Convolvulus arvensis)
Procedure, shortened: as §1

[10] = tested on: velvetleaf (Abutilon theophrasti); conditions: Preemergence
Procedure, shortened: as §1

[11] = tested on: beggarticks (hairy beggarticks, Bidens pilosa)
Procedure, shortened: as §1

[12] = tested on: crabgrass, large (large crabgrass, Digitaria sanguinalis); conditions: Preemergence
Procedure, shortened: as §1

[13] = 62 g ai/ha, scale 0 to 100 (0 no effect, 100 complete control)
[14] = 31 g ai/ha, scale 0 to 100, 0 no effect, 100 complete control
[15] = 125 g ai/ha, visual, scale 0 no effect to 100 complete control
[16] = 250 g ai/ha, visual, scale 0 no effect to 100 complete control
[17] = 62 g ai/ha, Postemergence, scale 0 to 100 (0 no effect, 100 complete control)
[18] = 62 g ai/ha, Preemergence, scale 0 to 100 (0 no effect, 100 complete control)
[19] = 125 g ai/ha, Postemergence, scale 0 to 100 (0 no effect, 100 complete control)
[20] = 125 g ai/ha, Preemergence, scale 0 to 100 (0 no effect, 100 complete control)
[21] = 250 g ai/ha, Postemergence, scale 0 to 100 (0 no effect, 100 complete control)
[22] = Postemergence, 31 g ai/ha, visual, scale 0 no effect to 100 complete control
[23] = Preemergence, 31 g ai/ha, scale 0 to 100, 0 no effect, 100 complete control
[24] = Preemergence, 250 g ai/ha, visual, scale 0 no effect to 100 complete control
[25] = 125 g ai/ha, scale 0 to 100 (0 no effect, 100 complete control)
[26] = Preemergence, 125 g ai/ha, visual, scale 0 no effect to 100 complete control

CCc1sc2c(C)cc(C)cc2c1-c1c(O)c(C)nn(C)c1=O [Compound 57]
Plant response rating, Johnsongrass [1, 13]: 30 | Plant response rating, Johnsongrass [1, 14]: 0 | Plant response rating, Johnsongrass [1, 15]: 30 | Plant response rating, Johnsongrass [1, 16]: 35 | Plant response rating, Waterhemp [2, 17]: 50 | Plant response rating, Waterhemp [2, 18]: 75 | Plant response rating, Waterhemp [2, 19]: 30 | Plant response rating, Waterhemp [2, 20]: 40 | Plant response rating, Waterhemp [2, 21]: 75 | Plant response rating, Waterhemp [2, 22]: 50 | Plant response rating, Waterhemp [2, 23]: 80 | Plant response rating, Waterhemp [2, 24]: 80 | Plant response rating, Nightshade [3, 13]: 98 | Plant response rating, Nightshade [3, 25]: 98 | Plant response rating, Nightshade [3, 14]: 90 | Plant response rating, Nightshade [3, 16]: 98 | Plant response rating, Foxtail, Giant [4, 13]: 35 | Plant response rating, Foxtail, Giant [4, 14]: 5 | Plant response rating, Foxtail, Giant [4, 15]: 95 | Plant response rating, Foxtail, Giant [4, 16]: 95 | Plant response rating, Kochia [5, 17]: 70 | Plant response rating, Kochia [5, 18]: 65 | Plant response rating, Kochia [5, 19]: 60 | Plant response rating, Kochia [5, 21]: 75 | Plant response rating, Kochia [5, 22]: 50 | Plant response rating, Kochia [5, 23]: 20 | Plant response rating, Kochia [5, 26]: 75 | Plant response rating, Kochia [5, 24]: 100 | Plant response rating, Pigweed, Palmer [6, 17]: 20 | Plant response rating, Pigweed, Palmer [6, 18]: 35 | Plant response rating, Pigweed, Palmer [6, 19]: 30 | Plant response rating, Pigweed, Palmer [6, 20]: 40 | Plant response rating, Pigweed, Palmer [6, 21]: 60 | Plant response rating, Pigweed, Palmer [6, 22]: 10 | Plant response rating, Pigweed, Palmer [6, 23]: 35 | Plant response rating, Pigweed, Palmer [6, 24]: 60 | Plant response rating, Lambsquarters [7, 13]: 100 | Plant response rating, Lambsquarters [7, 14]: 100 | Plant response rating, Lambsquarters [7, 15]: 100 | Plant response rating, Lambsquarters [7, 16]: 100 | Plant response rating, Surinam Grass [8, 13]: 70 | Plant response rating, Surinam Grass [8, 25]: 85 | Plant response rating, Surinam Grass [8, 14]: 5 | Plant response rating, Surinam Grass [8, 16]: 95 | Plant response rating, Field Bindweed [9, 17]: 95 | Plant response rating, Field Bindweed [9, 18]: 95 | Plant response rating, Field Bindweed [9, 19]: 98 | Plant response rating, Field Bindweed [9, 21]: 95 | Plant response rating, Field Bindweed [9, 22]: 85 | Plant response rating, Field Bindweed [9, 23]: 70 | Plant response rating, Field Bindweed [9, 26]: 98 | Plant response rating, Field Bindweed [9, 24]: 100 | Plant response rating, Velvetleaf [10, 13]: 65 | Plant response rating, Velvetleaf [10, 25]: 95 | Plant response rating, Velvetleaf [10, 14]: 30 | Plant response rating, Velvetleaf [10, 16]: 100 | Plant response rating, Beggarticks [11, 17]: 100 | Plant response rating, Beggarticks [11, 18]: 100 | Plant response rating, Beggarticks [11, 19]: 100 | Plant response rating, Beggarticks [11, 21]: 100 | Plant response rating, Beggarticks [11, 22]: 100 | Plant response rating, Beggarticks [11, 23]: 100 | Plant response rating, Beggarticks [11, 26]: 100 | Plant response rating, Beggarticks [11, 24]: 100 | Plant response rating, Crabgrass, Large [12, 13]: 0 | Plant response rating, Crabgrass, Large [12, 14]: 0 | Plant response rating, Crabgrass, Large [12, 15]: 0 | Plant response rating, Crabgrass, Large [12, 16]: 0

Cc1ccc2ccccc2c1-c1c(OC(=O)OC(C)C)c(C)nn(C)c1=O [Compound 72]
Plant response rating, Johnsongrass [1, 13]: 0 | Plant response rating, Johnsongrass [1, 25]: 35 | Plant response rating, Johnsongrass [1, 14]: 0 | Plant response rating, Johnsongrass [1, 16]: 35 | Plant response rating, Waterhemp [2, 17]: 65 | Plant response rating, Waterhemp [2, 18]: 100 | Plant response rating, Waterhemp [2, 19]: 80 | Plant response rating, Waterhemp [2, 20]: 100 | Plant response rating, Waterhemp [2, 21]: 90 | Plant response rating, Waterhemp [2, 22]: 65 | Plant response rating, Waterhemp [2, 23]: 90 | Plant response rating, Waterhemp [2, 24]: 100 | Plant response rating, Nightshade [3, 13]: 80 | Plant response rating, Nightshade [3, 25]: 100 | Plant response rating, Nightshade [3, 14]: 0 | Plant response rating, Nightshade [3, 16]: 100 | Plant response rating, Foxtail, Giant [4, 13]: 65 | Plant response rating, Foxtail, Giant [4, 25]: 70 | Plant response rating, Foxtail, Giant [4, 14]: 35 | Plant response rating, Foxtail, Giant [4, 16]: 80 | Plant response rating, Kochia [5, 17]: 98 | Plant response rating, Kochia [5, 18]: 35 | Plant response rating, Kochia [5, 19]: 90 | Plant response rating, Kochia [5, 20]: 60 | Plant response rating, Kochia [5, 21]: 90 | Plant response rating, Kochia [5, 22]: 70 | Plant response rating, Kochia [5, 23]: 25 | Plant response rating, Kochia [5, 24]: 98 | Plant response rating, Pigweed, Palmer [6, 17]: 50 | Plant response rating, Pigweed, Palmer [6, 18]: 75 | Plant response rating, Pigweed, Palmer [6, 19]: 60 | Plant response rating, Pigweed, Palmer [6, 20]: 95 | Plant response rating, Pigweed, Palmer [6, 21]: 75 | Plant response rating, Pigweed, Palmer [6, 22]: 50 | Plant response rating, Pigweed, Palmer [6, 23]: 35 | Plant response rating, Pigweed, Palmer [6, 24]: 90 | Plant response rating, Lambsquarters [7, 13]: 80 | Plant response rating, Lambsquarters [7, 25]: 100 | Plant response rating, Lambsquarters [7, 14]: 90 | Plant response rating, Lambsquarters [7, 16]: 100 | Plant response rating, Surinam Grass [8, 13]: 40 | Plant response rating, Surinam Grass [8, 25]: 75 | Plant response rating, Surinam Grass [8, 14]: 5 | Plant response rating, Surinam Grass [8, 16]: 90 | Plant response rating, Field Bindweed [9, 17]: 80 | Plant response rating, Field Bindweed [9, 18]: 0 | Plant response rating, Field Bindweed [9, 19]: 95 | Plant response rating, Field Bindweed [9, 20]: 65 | Plant response rating, Field Bindweed [9, 21]: 90 | Plant response rating, Field Bindweed [9, 22]: 70 | Plant response rating, Field Bindweed [9, 23]: 0 | Plant response rating, Field Bindweed [9, 24]: 90 | Plant response rating, Velvetleaf [10, 13]: 40 | Plant response rating, Velvetleaf [10, 25]: 80 | Plant response rating, Velvetleaf [10, 14]: 50 | Plant response rating, Velvetleaf [10, 16]: 90 | Plant response rating, Beggarticks [11, 17]: 100 | Plant response rating, Beggarticks [11, 18]: 80 | Plant response rating, Beggarticks [11, 19]: 98 | Plant response rating, Beggarticks [11, 20]: 98 | Plant response rating, Beggarticks [11, 21]: 98 | Plant response rating, Beggarticks [11, 22]: 90 | Plant response rating, Beggarticks [11, 23]: 70 | Plant response rating, Beggarticks [11, 24]: 100 | Plant response rating, Crabgrass, Large [12, 13]: 0 | Plant response rating, Crabgrass, Large [12, 25]: 30 | Plant response rating, Crabgrass, Large [12, 14]: 0 | Plant response rating, Crabgrass, Large [12, 16]: 90

CCc1sc2ccc(C)cc2c1-c1c(O)c(C)nn(C)c1=O [Compound 47]
Plant response rating, Johnsongrass [1, 13]: 0 | Plant response rating, Johnsongrass [1, 14]: 0 | Plant response rating, Johnsongrass [1, 15]: 0 | Plant response rating, Johnsongrass [1, 16]: 20 | Plant response rating, Waterhemp [2, 17]: 80 | Plant response rating, Waterhemp [2, 18]: 90 | Plant response rating, Waterhemp [2, 19]: 85 | Plant response rating, Waterhemp [2, 20]: 90 | Plant response rating, Waterhemp [2, 21]: 100 | Plant response rating, Waterhemp [2, 22]: 75 | Plant response rating, Waterhemp [2, 23]: 50 | Plant response rating, Waterhemp [2, 24]: 100 | Plant response rating, Nightshade [3, 13]: 98 | Plant response rating, Nightshade [3, 25]: 100 | Plant response rating, Nightshade [3, 14]: 80 | Plant response rating, Nightshade [3, 16]: 100 | Plant response rating, Foxtail, Giant [4, 13]: 0 | Plant response rating, Foxtail, Giant [4, 14]: 0 | Plant response rating, Foxtail, Giant [4, 15]: 40 | Plant response rating, Foxtail, Giant [4, 16]: 80 | Plant response rating, Kochia [5, 17]: 70 | Plant response rating, Kochia [5, 18]: 85 | Plant response rating, Kochia [5, 19]: 80 | Plant response rating, Kochia [5, 21]: 85 | Plant response rating, Kochia [5, 22]: 60 | Plant response rating, Kochia [5, 23]: 0 | Plant response rating, Kochia [5, 26]: 75 | Plant response rating, Kochia [5, 24]: 100 | Plant response rating, Pigweed, Palmer [6, 17]: 35 | Plant response rating, Pigweed, Palmer [6, 18]: 0 | Plant response rating, Pigweed, Palmer [6, 19]: 30 | Plant response rating, Pigweed, Palmer [6, 20]: 25 | Plant response rating, Pigweed, Palmer [6, 21]: 70 | Plant response rating, Pigweed, Palmer [6, 22]: 35 | Plant response rating, Pigweed, Palmer [6, 23]: 0 | Plant response rating, Pigweed, Palmer [6, 24]: 65 | Plant response rating, Lambsquarters [7, 13]: 100 | Plant response rating, Lambsquarters [7, 14]: 100 | Plant response rating, Lambsquarters [7, 15]: 100 | Plant response rating, Lambsquarters [7, 16]: 100 | Plant response rating, Surinam Grass [8, 13]: 0 | Plant response rating, Surinam Grass [8, 25]: 35 | Plant response rating, Surinam Grass [8, 14]: 0 | Plant response rating, Surinam Grass [8, 16]: 35 | Plant response rating, Field Bindweed [9, 17]: 75 | Plant response rating, Field Bindweed [9, 18]: 50 | Plant response rating, Field Bindweed [9, 19]: 85 | Plant response rating, Field Bindweed [9, 21]: 90 | Plant response rating, Field Bindweed [9, 22]: 70 | Plant response rating, Field Bindweed [9, 23]: 50 | Plant response rating, Field Bindweed [9, 26]: 90 | Plant response rating, Field Bindweed [9, 24]: 100 | Plant response rating, Velvetleaf [10, 25]: 75 | Plant response rating, Velvetleaf [10, 14]: 0 | Plant response rating, Velvetleaf [10, 16]: 100 | Plant response rating, Beggarticks [11, 17]: 100 | Plant response rating, Beggarticks [11, 18]: 100 | Plant response rating, Beggarticks [11, 19]: 98 | Plant response rating, Beggarticks [11, 21]: 98 | Plant response rating, Beggarticks [11, 22]: 85 | Plant response rating, Beggarticks [11, 23]: 100 | Plant response rating, Beggarticks [11, 26]: 100 | Plant response rating, Beggarticks [11, 24]: 100 | Plant response rating, Crabgrass, Large [12, 13]: 0 | Plant response rating, Crabgrass, Large [12, 14]: 0 | Plant response rating, Crabgrass, Large [12, 15]: 0 | Plant response rating, Crabgrass, Large [12, 16]: 35
